Experiment: In vitro skin diffusion study, vertical Franz diffusion cell, HPLC-ESI-MS of markers
Format: in vitro ADME, pig
Details: 24 hours; for elevation of diffusion properties, transdermal patch relative to herbal paste control, receiving medium: FIG. 4A, markers diffused in the receiving medium; for elevation of diffusion properties, transdermal patch relative to herbal paste control, pig skin: FIG. 4B, markers remained in the pig skin; for percentage by weight of marker diffused to the dermis (remained in pig skin), Herbal Paste (Control) / percentage by weight of marker in the receiving cell, Herbal Paste (Control): donor: herbal paste of Example 1; for percentage by weight of marker diffused to the dermis (remained in pig skin), Herbal Paste (Control) / percentage by weight of marker in the receiving cell, Herbal Paste (Control) / percentage by weight of marker diffused to the dermis (remained in pig skin), Transdermal Patch (Test Sample) / percentage by weight of marker in the receiving cell, Transdermal Patch (Test Sample): 37° C., pig skin; for percentage by weight of marker diffused to the dermis (remained in pig skin), Transdermal Patch (Test Sample) / percentage by weight of marker in the receiving cell, Transdermal Patch (Test Sample): donor: transdermal patch of Example 4.2
Protocol: A vertical Franz diffusion cell (Hanson Research, USA) is used to carry out in vitro skin diffusion study. […] The receiving medium is formed by physiological saline solution of (0.9% NaCl). The donor compartment is filled with the test sample or control sample. […] After 24 hours, contents of the receiving cell and pig skin sample are collected, the solution from the receiving cell (i.e. receiving medium) and pig skin are detected for chemical markers found therein in order to analyze the transdermal diffusion rate of the test sample and control sample. The test is performed in triplicate. HPLC-ESI-MS is used to detect diffused markers and control sample. Agilent 1290 Infinity LC system (purchased from Agilent Technologies) having a vacuum device, a binary liquid pump, an autosampler, Agilent 6410 triple quadrupole (Triple Quad) LC/MS connected with a Agilent MassHunter computer software (Workstation) is used. Acquity UPLC HSS T3 1.8 μm (2.1 mm×150 mm) column is used and the Acquity UPLC is maintained a temperature of 40° C. […] The flow rate is controlled at 0.5 mL/min, and injection volume of 20 µL. MS analysis using Agilent 6410 triple quadrupole LC/MS configured with ESI MS is carried out under negative ion mode and multiple reaction monitoring modes. Target ions of HYA is m/z 611.2->325.0; Rg1 is m/z 799.5->637.4; […] is m/z 927.5->603.3; Rb1 is m/z 1107.6->119.0; Kae is m/z 285.0->117.0; Emo is m/z 269.0->241.0; Rhe is m/z 283.0->239.0 and OA is m/z 455.3->407.4.

| Compound | elevation of diffusion properties, transdermal patch relative to herbal paste control, receiving medium [times] | elevation of diffusion properties, transdermal patch relative to herbal paste control, pig skin [times] | percentage by weight of marker diffused to the dermis (remained in pig skin), Herbal Paste (Control) [wt %] | percentage by weight of marker in the receiving cell, Herbal Paste (Control) (receiving medium 0.9% NaCl) [wt %] | percentage by weight of marker diffused to the dermis (remained in pig skin), Transdermal Patch (Test Sample) [wt %] | percentage by weight of marker in the receiving cell, Transdermal Patch (Test Sample) (receiving medium 0.9% NaCl) [wt %] | detection in the receiving medium (in words) (receiving medium 0.9% NaCl) |
| --- | --- | --- | --- | --- | --- | --- | --- |
| Cc1cc(O)c2c(c1)C(=O)c1cc(O)cc(O)c1C2=O [Emo, Emodin] | 203 | 5 | 0.2773 | 0.0091 | 1.3656 | 1.8494 | – |
| CC1(C)CC[C@]2(C(=O)O[C@@H]3O[C@H](CO[C@@H]4O[C@H](CO)[C@@H](O)[C@H](O)[C@H]4O)[C@@H](O)[C@H](O)[C@H]3O)CC[C@]3(C)C(=CC[C@@H]4[C@@]5(C)CC[C@H](O[C@@H]6OC[C@H](O)[C@H](O)[C@H]6O)[C@@](C)(CO)[C@@H]5CC[C@]43C)[C@@H]2C1 [ASP6, Asperosaponin VI] | 32 | 33 | 0.0859 | 0.1375 | 2.8010 | 4.4904 | – |
| O=C(O)c1cc(O)c2c(c1)C(=O)c1cccc(O)c1C2=O [Rhein] | 21 | 11 | 0.1371 | 0.2299 | 1.4277 | 4.8924 | – |
| CC(C)=CCC[C@](C)(O[C@@H]1O[C@H](CO)[C@@H](O)[C@H](O)[C@H]1O)[C@H]1CC[C@]2(C)[C@@H]1[C@H](O)C[C@@H]1[C@@]3(C)CC[C@H](O)C(C)(C)[C@@H]3[C@@H](O[C@@H]3O[C@H](CO)[C@@H](O)[C@H](O)[C@H]3O)C[C@]12C [Rg1, Ginsenoside Rg1] | 14 | 21 | – | 1.1884 | – | 16.3635 | – |
| CC1(C)CC[C@]2(C(=O)O)CC[C@]3(C)C(=CC[C@@H]4[C@@]5(C)CC[C@H](O)C(C)(C)[C@@H]5CC[C@]43C)[C@@H]2C1 [OA, Oleanolic Acid] | – | 47 | 0.1253 | 0.0000 | 5.8588 | 0.0000 | cannot be detected |
| Hydrosafflower yellow A [HYA] | 8 | 41 | 0.0117 | 2.0879 | 0.4772 | 16.5104 | – |
| O=c1c(O)c(-c2ccc(O)cc2)oc2cc(O)cc(O)c12 [Kae, Kaempferol] | 11 | 12 | 0.7532 | 6.5294 | 9.0852 | 72.3590 | – |
| CC(C)=CCC[C@](C)(O[C@@H]1O[C@H](CO[C@@H]2O[C@H](CO)[C@@H](O)[C@H](O)[C@H]2O)[C@@H](O)[C@H](O)[C@H]1O)[C@H]1CC[C@]2(C)[C@@H]1[C@H](O)C[C@@H]1[C@@]3(C)CC[C@H](O[C@@H]4O[C@H](CO)[C@@H](O)[C@H](O)[C@H]4O[C@@H]4O[C@H](CO)[C@@H](O)[C@H](O)[C@H]4O)C(C)(C)[C@@H]3CC[C@]12C [Rb1, Ginsenoside Rb1] | 472 | 17 | – | 0.0167 | – | 7.8820 | – |

Source: patent publication US20140358094A1, “COMPOSITION, THE NANO-EMULSION AND TRANSDERMAL PATCH, METHODS OF PREPARATION AND USE THEREOF FOR TREATING TRAUMATIC INJURIES” (Nano and Advanced Materials Institute Limited, priority 2013, published 2014)
